Activity calls are given as the source filed them. No cut-off for these calls is given here.
What was measured:
[1] = tested on: Coxsackievirus A16; test: Antiviral activity against Coxsackievirus A16 16038 infected in RD cells assessed as reduction in viral genome copies at 0.08 uM/L preincubated with viral suspension for 2 hrs followed by cell addition and measured at 24 hrs post infection by RT-PCR analysis; format: functional, cell-based
[2] = tested on: Coxsackievirus A16; test: Antiviral activity against Coxsackievirus A16 TA271 infected in ICR mouse assessed as effect on virus-induced IL-6 level at 0.08 uM/L preincubated with viral suspension for 2 hrs followed by intramuscular administration after 3 days post infection by ELISA; format: functional
[3] = tested on: Coxsackievirus A16; test: (§1) Antiviral activity against Coxsackievirus A16 TA271 infected in RD cells at release stage assessed as increase in intracytoplasmic granules at 0.08 uM/L preincubated with cells for 1 hr followed by replacement of fresh medium containing compounds after 5 hrs post infection and further incubated for 16 hrs post infection by inverted microscopic analysis; format: functional, cell-based
[4] = tested on: Coxsackievirus A16; test: as §1, with “cell detachment” for “increase in intracytoplasmic granules”; format: functional, cell-based
[5] = tested on: Coxsackievirus A16; test: Antiviral activity against Coxsackievirus A16 TA271 infected in human RD cells assessed as inhibition of virus-induced cytopathic effect preincubated with viral suspension for 2 hrs followed by cell addition and measured after 24 hrs by CCK-8 assay; format: functional, cell-based
[6] = tested on: Coxsackievirus A16; test: Antiviral activity against Coxsackievirus A16 TA271 infected in ICR mouse assessed as reduction in viral load in lung at 2 mg/kg, im after 3 to 5 days post infection by RT-PCR analysis; format: functional, organism-based
[7] = tested on: Coxsackievirus A16; test: Antiviral activity against Coxsackievirus A16 TA271 infected in ICR mouse assessed as reduction in virus-induced IL-6 level at 0.08 uM/L preincubated with viral suspension for 2 hrs followed by intramuscular administration after 3 days post infection by ELISA; format: functional
[8] = tested on: Coxsackievirus A16; test: Antiviral activity against Coxsackievirus A16 TA271 infected in RD cells at preinfection stage assessed as increase in intracytoplasmic granules at 0.08 uM/L preincubated with cells for 3 hrs followed by viral infection and measured after 1 hr by inverted microscopic analysis; format: functional, cell-based
[9] = tested on: Coxsackievirus A16; test: as §1, with “cell fragmentation” for “increase in intracytoplasmic granules”; format: functional, cell-based
[10] = tested on: Coxsackievirus A16; test: Antiviral activity against Coxsackievirus A16 TA271 infected in ICR mouse assessed as reduction in virus-induced IFN-gamma level at 0.08 uM/L preincubated with viral suspension for 2 hrs followed by intramuscular administration after 3 days post infection by ELISA; format: functional
[11] = tested on: Coxsackievirus A16; test: Antiviral activity against Coxsackievirus A16 TA271 infected in RD cells at preinfection stage assessed as appearance of rounded cells at 0.08 uM/L preincubated with cells for 3 hrs followed by viral infection and measured after 1 hr by inverted microscopic analysis; format: functional, cell-based
[12] = tested on: Coxsackievirus A16; test: Antiviral activity against Coxsackievirus A16 TA271 infected in ICR mouse assessed as reduction in virus-induced IL-6 level at 2 mg/kg, im after 3 days post infection by ELISA; format: functional, organism-based
[13] = tested on: Coxsackievirus A16; test: Antiviral activity against Coxsackievirus A16 TA271 infected in RD cells at preinfection stage assessed as appearance of cell shrinkage at 0.08 uM/L preincubated with cells for 3 hrs followed by viral infection and measured after 1 hr by inverted microscopic analysis; format: functional, cell-based
[14] = tested on: Coxsackievirus A16; test: Antiviral activity against Coxsackievirus A16 TA271 infected in ICR mouse assessed as reduction in muscle fiber breakage in spinal muscle at 2 mg/kg, im after 5 days post infection by H and E staining based histopathological analysis; format: functional, organism-based
[15] = tested on: Coxsackievirus A16; test: Antiviral activity against Coxsackievirus A16 TA271 infected in ICR mouse assessed as reduction in viral load in heart at 2 mg/kg, im after 3 to 5 days post infection by RT-PCR analysis; format: functional, organism-based
[16] = tested on: Coxsackievirus A16; test: Antiviral activity against Coxsackievirus A16 TA271 infected in ICR mouse assessed as reduction in viral load in spinal muscle at 2 mg/kg, im after 3 to 5 days post infection by RT-PCR analysis; format: functional, organism-based
[17] = tested on: Coxsackievirus A16; test: Antiviral activity against Coxsackievirus A16 TA271 infected in human RD cells assessed as inhibition of virus-induced cytopathic effect at 0.08 uM/L preincubated with viral suspension for 2 hrs followed by cell addition and measured after 24 hrs by CCK-8 assay relative to control; format: functional; details: Enterovirus A
[18] = tested on: Coxsackievirus A16; test: Antiviral activity against Coxsackievirus A16 TA271 infected in RD cells assessed as effect on viral load at preinfection stage at 0.08 uM/L preincubated with cells for 3 hrs followed by viral infection for 1 hr and measured after 48 hrs post infection in fresh medium by RT-PCR analysis; format: functional, cell-based
[19] = tested on: Coxsackievirus A16; test: Antiviral activity against Coxsackievirus A16 TA271 infected in ICR mouse assessed as reduction in inflammatory cell infiltration in heart at 2 mg/kg, im after 5 days post infection by H and E staining based histopathological analysis; format: functional, organism-based
[20] = tested on: Coxsackievirus A16; test: Antiviral activity against Coxsackievirus A16 TA271 infected in RD cells at replication stage assessed as increase in intracytoplasmic granules at 0.08 uM/L 1 hr post-infection viral inoculum was removed and cells incubated with medium containing compound and measured after 5 hrs by inverted microscopic analysis; format: functional, cell-based
[21] = tested on: Coxsackievirus A16; test: Antiviral activity against Coxsackievirus A16 TA271 infected in ICR mouse assessed as mild alveolar wall thickening in lung at 2 mg/kg, im after 5 days post infection by H and E staining based histopathological analysis; format: functional, organism-based
[22] = tested on: Coxsackievirus A16; test: Antiviral activity against Coxsackievirus A16 TA271 infected in RD cells assessed as log reduction in viral genome copies at 0.08 uM/L preincubated with viral suspension for 2 hrs followed by cell addition and measured at 24 hrs post infection by RT-PCR analysis; format: functional
[23] = tested on: Coxsackievirus A16; test: Antiviral activity against Coxsackievirus A16 TA271 infected in ICR mouse assessed as mild alveolar wall thickening in hind limb muscle at 2 mg/kg, im after 5 days post infection by H and E staining based histopathological analysis; format: functional, organism-based
[24] = tested on: Coxsackievirus A16; test: Antiviral activity against Coxsackievirus A16 TA271 infected in ICR mouse assessed as mild alveolar wall thickening in heart at 2 mg/kg, im after 5 days post infection by H and E staining based histopathological analysis; format: functional, organism-based
[25] = tested on: Coxsackievirus A16; test: Antiviral activity against Coxsackievirus A16 LW614 infected in RD cells assessed as reduction in viral genome copies at 0.08 uM/L preincubated with viral suspension for 2 hrs followed by cell addition and measured at 24 hrs post infection by RT-PCR analysis; format: functional, cell-based
[26] = tested on: Coxsackievirus A16; test: Antiviral activity against Coxsackievirus A16 TA271 infected in ICR mouse assessed as reduction in viral load in hind limb muscle at 2 mg/kg, im after 3 to 5 days post infection by RT-PCR analysis; format: functional, organism-based
[27] = tested on: Coxsackievirus A16; test: Antiviral activity against Coxsackievirus A16 TA271 infected in ICR mouse assessed as reduction in muscle fiber breakage in heart at 2 mg/kg, im after 5 days post infection by H and E staining based histopathological analysis; format: functional, organism-based
[28] = Cytotoxicity against human RD cells assessed as reduction in cell viability after 12 hrs by CCK8 assay; format: cell-based
[29] = tested on: Coxsackievirus A16; test: Antiviral activity against Coxsackievirus A16 TA271 infected in ICR mouse assessed as reduction in viral load in lung at 0.08 uM/L preincubated with viral suspension for 2 hrs followed by intramuscular administration after 3 to 5 days post infection by RT-PCR analysis; format: functional
[30] = tested on: Coxsackievirus A16; test: Antiviral activity against Coxsackievirus A16 TA271 infected in RD cells assessed as inhibition of viral adsorption/viral entry by measuring increase in cell viability at 0.08 uM/L after 1 hr by inverted microscopic analysis; format: functional, cell-based

CC(=O)OC(CC=C(C)C)C1=CC(=O)c2c(O)ccc(O)c2C1=O (stereo unspecified)
Activity [1]: Active
Activity [2]: inactive
Activity [3]: inactive
Activity [4]: inactive
Activity [5]: Dose-dependent effect
EC50 ([5]; Enterovirus A): 0.04 µM
Activity [6]: Active
Activity [7]: Active
Activity [8]: inactive
Activity [9]: inactive
Activity [10]: Active
Activity [11]: inactive
Activity [12]: Active
Activity [13]: inactive
Activity [14]: Active
Activity [15]: Active
Activity [16]: Active
inhibition at 0.08 µM [17]: 80%
Activity [18]: inactive
Activity [19]: Active
Activity [20]: inactive
Activity [21]: Active
LCK [22]: >2
Activity [23]: Active
Activity [24]: Active
Activity [25]: Active
Activity [26]: Active
Activity [27]: Active
CC50 at 12 h [28]: 9.4 µM
Activity [29]: Active
inhibition [30]: Active
